# Entries after “also recorded” stand apart in the source; their conditions may differ.
# Assays:
# [1] = system: podocyte monolayer; experiment: Albumin permeability across differentiated podocyte monolayer (Transwell); type: cell-based, mouse; settings: for Albumin permeability across podocyte monolayer: 1 mM; for Effect on the protective effect of adiponectin on podocyte permeability: ARA-A 1 mM pre-treatment prior to addition of adiponectin; for Permeability of albumin across a podocyte monolayer: adiponectin (globular or full length) 3 μg/ml, serum free, vs. control
# Protocol: Podocyte cell culture: Conditionally immortalized mouse podocytes were kindly provided by Dr. Peter Mundel (Albert Einstein College of Medicine, Bronx, N.Y.) and were cultured as previously described (27). The cells harbor a temperature-sensitive variant of the SV40 large T antigen (tsA58) that is inducible by γ-interferon and stable at 33° C. but rapidly degraded at 37° C. (27). At 33° C., the large T antigen allows for cellular proliferation. The proliferating cells are maintained in collagen I—coated flasks in RPMI-1640 media supplemented with 10% FBS and 10 units/ml mouse recombinant γ-interferon. When the cells have reached confluence, they are passaged and allowed to differentiate at 37° C. for 8-10 days without γ-interferon in Dulbecco's modified Eagle's medium containing 5.5 mmol/l glucose and 5% FCS. For the permeability assay a modification of a previously published protocol (28) was adopted. Differentiated podocytes (0.2×10^6 podocytes/well) plated on collagen coated 24 well Transwell plates (Corning) were serum-starved ovenight when confluent. Cells were then modulated with globular adiponectin (PepROTech Inc.) with or without 1 mM adenosine 9-p-D-arabinofuranoside (ARA-A) (Sigma, St. Louis, Mo.), for 24 h. Cells were then washed twice with PBS supplemented with 1 mM MgCl2 and 1 mM CaCl2. The upper compartment was refilled with 0.25 ml RPMI 1640 alone and the lower compartment with 0.5 ml RPMI 1640 supplemented with 40 mg/ml BSA and incubated for 2 hour at 37° C. Total protein concentration in the upper compartment was determined using a Bio-Rad protein assay (Bio-Rad Laboratories, Hercules, Calif.).
# [2] = system: Adiponectin KO (Ad−/−) mice; experiment: Urine albumin/creatinine ratio in treated adiponectin KO mice; type: in vivo, mouse; settings: Ad−/− mice at 4 months of age
# Protocol: Adiponectin administration and animal studies: The mice were treated with 25 μg of recombinant human globular domain adiponectin (gAd; PepROTech, Rocky Hill, N.J.) subcutaneously twice daily for 10 consecutive days. The control animals were given PBS alone. 24-hour urines from each mouse were collected twice: one week before the injections and on the last day of the injections. The urine albumin and creatinine were measured with a mouse Albuwell ELISA kit and a Creatinine Companion kit (Exocell, Philadelphia, Pa.) (25,26). The mice were sacrificed five hours after the final gAd injection under anesthesia. Portions of kidney cortex were fixed in buffered formalin and embedded in paraffin. A portion of kidney cortical tissue was cut into 1 mm^3 pieces and fixed in 2.5% glutaraldehyde
# (§1) Interventional animal studies: The mice were treated with 25 μg of recombinant human globular domain adiponectin gAd (PepROTech, Rocky Hill, N.J.), administered 25 μg/mouse twice a day for 10 consecutive days or full-length adiponectin (fAd) was administered using an AAV vector (AAV2/8 CMV fAd virus 4×1011 GC/mouse for 10 days). A separate group of Ad−/− mice were treated with 5-aminoimidazole-4-carboxamide-1-beta-D-ribonucleoside (AICAR) with a single i.p. dose of 300 mg/kg. The control animals were given PBS alone or control AAV. 24-hour urines from each mouse were collected before treatment and on the last day of the treatment period. The urine albumin and creatinine were measured with a mouse Albuwell ELISA kit and a Creatinine Companion kit (Exocell, Philadelphia, Pa.) (26, 25). As an index of oxidant stress timed urine collections were also analyzed for hydrogen peroxide by Amplex red assay (Invitrogen/Molecular Probes, Carlsbad, Calif.) following the manufacturer's protocol. Portions of liver, muscle and kidney was snap-frozen in liquid nitrogen for RNA isolation. An additional aliquot of normal kidney was frozen in OCT for immunofluorescent staining. […]
# [3] = system: Ad−/− mice; experiment: Urinary hydrogen peroxide (Amplex red) in Ad−/− mice; type: in vivo, mouse; settings: 4 month-old Ad−/− mice
# Protocol: as §1
# [4] = system: Nox4; experiment: Nox4 protein in cultured podocytes (immunoblot, confocal); type: cell-based, mouse; settings: AICAR; podocytes grown in high glucose (HG)
molecule,measurement,setting,value
"NC(=O)c1ncn([C@@H]2O[C@H](CO)[C@@H](O)[C@H]2O)c1N [AICAR, 5-aminoimidazole-4-carboxamide-1-beta-D-ribonucleoside, reference compound]",Albumin permeability across podocyte monolayer,[1]; AMPK activator AICAR,decreased
same,Urine albumin/creatinine ratio (albuminuria),"[2]; AICAR single i.p. dose of 300 mg/kg, 300 mg/kg",restored albuminuria; also recorded: significantly decreased urine albumin/creatinine to the control values seen in WT mice
same,Urinary levels of hydrogen peroxide,[3]; AICAR single i.p. dose of 300 mg/kg,reduced
same,Podocyte Nox4 protein,[4],reduced Nox4 protein levels to a similar degree as adiponectin
"Nc1ncnc2c1ncn2[C@@H]1O[C@H](CO)[C@@H](O)[C@@H]1O [ARA-A, adenosine 9-p-D-arabinofuranoside]",Albumin permeability across podocyte monolayer,[1]; AMPK inhibitor ARA-A alone,increased permeability to albumin
same,Albumin permeability across podocyte monolayer,"[1]; AMPK inhibitor ARA-A alone, listed as ARA",increased
same,Effect on the protective effect of adiponectin on podocyte permeability,[1],prevented the protective effects of adiponectin on podocyte permeability; also recorded: increased permeability to albumin; also recorded: blocked protective effect of adiponectin
same,Effect on the protective effect of adiponectin on podocyte permeability,[1]; listed as ARA,blocked
"fAd: full-length adiponectin; in mice administered using an AAV vector (AAV2/8 CMV fAd virus) (protein, listed as Homo sapiens, delivered via AAV2/8 CMV vector) MLLLGAVLLLLALPGHDQETTTQGPGVLLPLPKGACTGWMAGIPGHPGHNGAPGRDGRDGTPGEKGEKGDPGLIGPKGDIGETGVPGAEGPRGFPGIQGRKGEPGEGAYVYRSAFSVGLETYVTIPNMPIRFTKIFYNQQNHYDGSTGKFHCNIPGLYYFAYHITVYMKDVKVSLFKKDKAMLFTYDQYQENNVDQASGSVLLHLEVGDQVWLQVYGEGERNGLYADNDNDSTFTGFLLYHDTN",Permeability of albumin across a podocyte monolayer,[1],reduced
same,Permeability of albumin across a podocyte monolayer,[1]; listed as full length adiponectin,significantly reduced
same,Urine albumin/creatinine ratio (albuminuria),"[2]; fAd by AAV vector, 10 days",significantly decreased urine albumin/creatinine to the control values seen in WT mice
same,Urinary levels of hydrogen peroxide,"[3]; fAd by AAV vector, 10 days",reduced

# — patent publication US20100056445A1, “ADIPONECTIN FOR THE TREATMENT AND DIAGNOSIS OF ALBUMINURIA” (THOMAS JEFFERSON UNIVERSITY, priority 2006, published 2010)
